Results on two compounds are retold here after patent US9809624B2, “Neurotensin analogues for radioisotope targeting to neurotensin receptor-positive tumors” (INSERM (Institut National de la Sante et de la Recherche …, priority 2009, dated 2017).

Broadly, the IC50 is the concentration needed to halve the response being measured. Low values mean inhibition by little substance, high ones a need for much substance. The Ki is a dissociation constant, usually derived from enzyme kinetics or from competition with a known ligand. A lower Ki goes with a stronger hold on the target.

Non-standard residues stand in square brackets, D forms with d. Residues, ends and D or L forms follow the SMILES beside them. Tle = CC(C)(C)[C@H](N)C(=O)O

Test [1] deals with T1, NTS1 (Homo sapiens, UniProt P30989).
T1 construct: endogenous in cells; host or cells: HT29 cells (membranes or living cells)
T1 sequence (P30989 whole entry): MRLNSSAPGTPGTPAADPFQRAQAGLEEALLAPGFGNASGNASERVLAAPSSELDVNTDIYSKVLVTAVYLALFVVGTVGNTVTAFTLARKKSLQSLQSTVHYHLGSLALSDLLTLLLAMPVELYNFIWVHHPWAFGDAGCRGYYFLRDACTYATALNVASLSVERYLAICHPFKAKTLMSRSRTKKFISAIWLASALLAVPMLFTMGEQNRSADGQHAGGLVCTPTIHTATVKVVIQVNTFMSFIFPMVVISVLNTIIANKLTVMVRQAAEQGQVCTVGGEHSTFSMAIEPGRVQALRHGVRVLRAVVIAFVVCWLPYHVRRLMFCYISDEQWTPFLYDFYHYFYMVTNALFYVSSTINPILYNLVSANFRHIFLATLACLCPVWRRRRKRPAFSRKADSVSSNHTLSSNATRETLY
Description: Binding to living HT29 cells (competition). The note with it: 60 min 37° C., tracer [Lys6(DTPA(111In))]-NT, the labeled DTPA(111In)-peptide itself, or 125I-NT (DOTA-peptides). The method, then:
After washing the wells twice with ice-cold DMEM 0.2% BSA, cells were lysed in 500 μL 0.1N NaOH and radioactivity was counted. Non-specific binding was evaluated in the presence of 10^-6 M neurotensin. Competition curves were analyzed with the “Equilibrium Expert” software (Raguin et al., Anal. Biochem. (2002) 310, 1-14). All experiments were performed three times in triplicate. Ki values for binding to HT29 cell membranes and IC50 for binding to cells were used to evaluate affinity (Table 2).

The target of test [2] is T1, NTS1. Nature of the test: Binding to HT29 cell membranes (competition with 125I-Tyr3-neurotensin). The settings on record: 50 pM 125I-Tyr3-neurotensin, 45 min room temperature. The method, then: Membrane bound activity was recovered by filtration onto Whatman GF/B filters presoaked for 1 hour with polyethyleneimine (0.2% in water) and rinsed twice with buffer. Non-specific binding was evaluated in the presence of 10^-6 M neurotensin. Radioactivity was counted and results were analyzed with GraphPad Prism® (GraphPad Software, Inc. San Diego, Calif.). All experiments were performed three times in triplicate. Ki values for binding to HT29 cell membranes and IC50 for binding to cells were used to evaluate affinity (Table 2).

Take `CC[C@H](C)[C@H](NC(=O)[C@H](Cc1ccc(O)cc1)NC(=O)[C@@H]1CCCN1C(=O)[C@H](CCCNC(=N)N)NC(=O)[C@H](CCCNC(=N)N)NC(=O)[C@@H]1CCCN1C(=O)[C@H](CCCCN)NC(C)=O)C(=O)N[C@@H](CC(C)C)C(=O)O` [NT-20.1]: the IC50 at NTS1 [1] was 0.82 ± 0.08 nM. In addition, at NTS1 [2], the affinity corresponds to a Ki of 0.072 ± 0.019 nM.
`CC(=O)N[C@@H](CCCCN)C(=O)N1CCC[C@H]1C(=O)N[C@@H](CCCNC(=N)N)C(=O)N[C@@H](CCCNC(=N)N)C(=O)N1CCC[C@H]1C(=O)N[C@@H](Cc1ccc(O)cc1)C(=O)N[C@H](C(=O)N[C@@H](CC(C)C)C(=O)O)C(C)(C)C` [NT-20.2, Ac-Lys-Pro-Arg-Arg-Pro-Tyr-Tle-Leu-OH] (Ac-KPRRPY[Tle]L-OH) yielded an IC50 on NTS1 [1] of 2.46 ± 0.79 nM. Besides, the Ki on NTS1 [2] came out at 0.26 ± 0.07 nM.
